Patent US9624200B2, “Therapeutic piperazines” (DART NEUROSCIENCE (CAYMAN) LTD., priority 2006, dated 2017)
pIC50: −log10 of the molar value.

tested on: PDE4 from human U-937 cells; experiment: PDE4 Inhibition Assay; type: biochemical; conditions: 1 μM cAMP, [3H]-cAMP, read-out: Potency Class (Inhibitory Concentration) in the PDE4 assay
Description: PDE4 from human U-937 cells was used (see T. J. Torphy, et al., J. Pharmacol. Exp. Ther., 1992, 263, 1195-1205). Test compound at various concentration and/or vehicle was preincubated with 2 μg/ml enzyme in Tris-HCl buffer pH 7.5 for 15 minutes at 25° C. The reaction was initiated by addition of 1 1 μM cAMP and 0.01 1 μM [^3H]-cAMP for another 20 minute incubation period and terminated at 100° C. The resulting [^3H]-AMP was converted to [^3H]-adenosine by addition of snake venom nucleotidase and separated by AG1-X2 resin. An aliquot was removed and counted to determine the amount of [^3H]-adenosine formed. Results were converted to percent inhibition and IC so determined using XLfit from IDBS (ID Business Solutions Ltd., 2 Occam Court, Surrey Research Park, Guildford, Surrey, GU2 7QB UK).
Representative compounds of the present invention were tested and found to have significant PDE4 inhibition in this assay.

Row | SMILES | pIC50
1 | COc1ccc(N2CCN(C(=O)c3ccc(O)c(O)c3)[C@@H](Cc3ccccc3)C2)cc1OC1CCCC1 [Compound 286, (S)-(2-benzyl-4-(3-(cyclopentyloxy)-4-methoxyphenyl)piperazin-1-yl)(3,4-dihydroxyphenyl)methanone] | < 6.00
2 | COc1ccc(N2CCN(C(=O)Cn3ccnc3C)[C@@H](Cc3ccccc3)C2)cc1OC1CCCC1 [Compound 289, (S)-1-(2-benzyl-4-(3-(cyclopentyloxy)-4-methoxyphenyl)piperazin-1-yl)-2-(2-methyl-1H-imidazol-1-yl)ethanone] | < 6.00
3 | COc1ccc(N2CCN(C(=O)Cn3ccnc3)[C@@H](Cc3ccccc3)C2)cc1OC1CCCC1 [Compound 290, (S)-1-(2-benzyl-4-(3-(cyclopentyloxy)-4-methoxyphenyl)piperazin-1-yl)-2-(1H-imidazol-1-yl)ethanone] | < 6.00
4 | COc1ccc(N2CCN(C(=O)[C@@H]3CCC(=O)O3)[C@@H](Cc3ccccc3)C2)cc1OC1CCCC1 [Compound 295, (S)-5-((S)-2-benzyl-4-(3-(cyclopentyloxy)-4-methoxyphenyl)piperazine-1-carbonyl)dihydrofuran-2 (3H)-one] | < 6.00
5 | COc1ccc(N2CCN(C(=O)[C@H]3CCC(=O)O3)[C@@H](Cc3ccccc3)C2)cc1OC1CCCC1 [Compound 296, (R)-5-((S)-2-benzyl-4-(3-(cyclopentyloxy)-4-methoxyphenyl)piperazine-1-carbonyl)dihydrofuran-2(3H)-one] | < 6.00
6 | COc1ccc(N2CCN(C(=O)Cc3sc(C)nc3C)[C@@H](Cc3ccccc3)C2)cc1OC1CCCC1 [Compound 298, (S)-1-(2-benzyl-4-(3-(cyclopentyloxy)-4-methoxyphenyl)piperazin-1-yl)-2-(2,4-dimethylthiazol-5-yl)ethanone] | < 6.00
7 | COc1ccc(N2CCN(C(=O)Cc3c[nH]cn3)[C@@H](Cc3ccccc3)C2)cc1OC1CCC1 [Compound 303, (S)-1-(2-benzyl-4-(3-cyclobutoxy-4-methoxyphenyl)piperazin-1-yl)-2-(1H-imidazol-4-yl)ethanone] | > 6.70
8 | COc1ccc(N2CCN(C(=O)c3cc[nH]n3)[C@@H](Cc3ccccc3)C2)cc1OC1CCCC1 [Compound 304, (S)-(2-benzyl-4-(3-(cyclopentyloxy)-4-methoxyphenyl)piperazin-1-yl)(1H-pyrazol-3-yl)methanone] | < 6.00
9 | COc1ccc(N2CCN(C(=O)Cc3ccc[nH]3)[C@@H](Cc3ccccc3)C2)cc1OC1CCCC1 [Compound 306, (S)-1-(2-benzyl-4-(3-(cyclopentyloxy)-4-methoxyphenyl)piperazin-1-yl)-2-(1H-pyrrol-2-yl)ethanone] | 6.00 to 6.70
10 | COc1ccc(N2CCN(C(=O)Cc3ccco3)[C@@H](Cc3ccccc3)C2)cc1OC1CCC1 [Compound 314, (S)-1-(2-benzyl-4-(3-cyclobutoxy-4-methoxyphenyl)piperazin-1-yl)-2-(furan-2-yl)ethanone] | 6.00 to 6.70
11 | COc1ccc(N2CCN(C(=O)C3(C(=O)O)CCC3)[C@@H](Cc3ccccc3)C2)cc1OC1CCC1 [Compound 315, (S)-1-(2-benzyl-4-(3-cyclobutoxy-4-methoxyphenyl)piperazine-1-carbonyl)cyclobutanecarboxylic acid] | > 6.70
12 | COc1ccc(N2CCN(C(=O)Cc3cncn3C)[C@@H](Cc3ccccc3)C2)cc1OC1CCCC1 [Compound 318, (S)-1-(2-benzyl-4-(3-(cyclopentyloxy)-4-methoxyphenyl)piperazin-1-yl)-2-(1-methyl-1H-imidazol-5-yl)ethanone] | 6.00 to 6.70
13 | COc1ccc(N2CCN(C(=O)CN3CC[C@H](O)C3)[C@@H](Cc3ccccc3)C2)cc1OC1CCCC1 [Compound 319, 1-((S)-2-benzyl-4-(3-(cyclopentyloxy)-4-methoxyphenyl)piperazin-1-yl)-2-((S)-3-hydroxypyrrolidin-1-yl)ethanone] | 6.00 to 6.70
14 | COc1ccc(N2CCN(C(=O)CN3CC[C@@H](O)C3)[C@@H](Cc3ccccc3)C2)cc1OC1CCCC1 [Compound 320, 1-((S)-2-benzyl-4-(3-(cyclopentyloxy)-4-methoxyphenyl)piperazin-1-yl)-2-((R)-3-hydroxypyrrolidin-1-yl)ethanone] | < 6.00

The next lines start with the values.

Row | pIC50 | SMILES
15 | 6.00 to 6.70 | COc1ccc(N2CCN(C(=O)c3c[nH]c(=O)[nH]3)[C@@H](Cc3ccccc3)C2)cc1OC1CCCC1 [Compound 288, (S)-4-(2-benzyl-4-(3-(cyclopentyloxy)-4-methoxyphenyl)piperazine-1-carbonyl)-1H-imidazol-2(3H)-one]
16 | 6.00 to 6.70 | COc1ccc(N2CCN(C(=O)Cc3cncs3)[C@@H](Cc3ccccc3)C2)cc1OC1CCCC1 [Compound 291, (S)-1-(2-benzyl-4-(3-(cyclopentyloxy)-4-methoxyphenyl)piperazin-1-yl)-2-(thiazol-5-yl)ethanone]
17 | > 6.70 | COc1ccc(N2CCN(C(=O)[C@@H]3CNC(=O)N3)[C@@H](Cc3ccccc3)C2)cc1OC1CCCC1 [Compound 292, (S)-4-((S)-2-benzyl-4-(3-(cyclopentyloxy)-4-methoxyphenyl)piperazine-1-carbonyl)imidazolidin-2-one]
18 | 6.00 to 6.70 | COc1ccc(N2CCN(C(=O)Cc3n[nH]c(=O)[nH]3)[C@@H](Cc3ccccc3)C2)cc1OC1CCCC1 [Compound 293, (S)-3-(2-(2-benzyl-4-(3-(cyclopentyloxy)-4-methoxyphenyl)piperazin-1-yl)-2-oxoethyl)-1H-1,2,4-triazol-5(4H)-one]
19 | > 6.70 | COc1ccc(N2CCN(C(=O)Cc3nn[nH]n3)[C@@H](Cc3ccccc3)C2)cc1OC1CCCC1 [Compound 294, (S)-1-(2-benzyl-4-(3-(cyclopentyloxy)-4-methoxyphenyl)piperazin-1-yl)-2-(2H-tetrazol-5-yl)ethanone]
20 | 6.00 to 6.70 | COc1ccc(N2CCN(C(=O)C3(O)CCC3)[C@@H](Cc3ccccc3)C2)cc1OC1CCCC1 [Compound 297, (S)-(2-benzyl-4-(3-(cyclopentyloxy)-4-methoxyphenyl)piperazin-1-yl)(1-hydroxycyclobutyl)methanone]
21 | 6.00 to 6.70 | COc1ccc(N2CCN(C(=O)C3CNC(=O)C3)[C@@H](Cc3ccccc3)C2)cc1OC1CCCC1 (stereo partly drawn) [Compound 299, 4-((S)-2-benzyl-4-(3-(cyclopentyloxy)-4-methoxyphenyl)piperazine-1-carbonyl)pyrrolidin-2-one]
22 | > 6.70 | COc1ccc(N2CCN(C(=O)Cc3ncc[nH]3)[C@@H](Cc3ccccc3)C2)cc1OC1CCCC1 [Compound 301, (S)-1-(2-benzyl-4-(3-(cyclopentyloxy)-4-methoxyphenyl)piperazin-1-yl)-2-(1H-imidazol-2-yl)ethanone]
23 | 6.00 to 6.70 | COc1ccc(N2CCN(C(=O)C(=O)c3ccco3)[C@@H](Cc3ccccc3)C2)cc1OC1CCCC1 [Compound 302, (S)-1-(2-benzyl-4-(3-(cyclopentyloxy)-4-methoxyphenyl)piperazin-1-yl)-2-(furan-2-yl)ethane-1,2-dione]
24 | > 6.70 | COc1ccc(N2CCN(C(=O)Cc3cc(C)[nH]n3)[C@@H](Cc3ccccc3)C2)cc1OC1CCCC1 [Compound 305, (S)-1-(2-benzyl-4-(3-(cyclopentyloxy)-4-methoxyphenyl)piperazin-1-yl)-2-(5-methyl-1H-pyrazol-3-yl)ethanone]
25 | > 6.70 | COc1ccc(N2CCN(C(=O)Cc3cc[nH]c3)[C@@H](Cc3ccccc3)C2)cc1OC1CCCC1 [Compound 307, (S)-1-(2-benzyl-4-(3-(cyclopentyloxy)-4-methoxyphenyl)piperazin-1-yl)-2-(1H-pyrrol-3-yl)ethanone]
26 | > 6.70 | COc1ccc(N2CCN(C(=O)Cc3nc(C)cs3)[C@@H](Cc3ccccc3)C2)cc1OC1CCCC1 [Compound 308, (S)-1-(2-benzyl-4-(3-(cyclopentyloxy)-4-methoxyphenyl)piperazin-1-yl)-2-(4-methylthiazol-2-yl)ethanone]
27 | > 6.70 | COc1ccc(N2CCN(C(=O)Cc3cn(C)cn3)[C@@H](Cc3ccccc3)C2)cc1OC1CCCC1 [Compound 317, (S)-1-(2-benzyl-4-(3-(cyclopentyloxy)-4-methoxyphenyl)piperazin-1-yl)-2-(1-methyl-1H-imidazol-4-yl)ethanone]
28 | > 6.70 | COc1ccc(N2CCN(C(=O)Cc3n[nH]c([N+](=O)[O-])n3)[C@@H](Cc3ccccc3)C2)cc1OC1CCCC1 [Compound 325, (S)-1-(2-benzyl-4-(3-(cyclopentyloxy)-4-methoxyphenyl)piperazin-1-yl)-2-(5-nitro-1H-1,2,4-triazol-3-yl)ethanone]
29 | > 6.70 | COc1ccc(N2CCN(C(=O)Cc3cnc[nH]3)[C@@H](Cc3ccccc3)C2)cc1OC(C)C [Compound 327, (S)-1-(2-benzyl-4-(3-isopropoxy-4-methoxyphenyl)piperazin-1-yl)-2-(1H-imidazol-5-yl)ethanone]
30 | > 6.70 | COc1ccc(N2CCN(C(=O)Cc3cc[nH]c3)[C@@H](Cc3ccccc3)C2)cc1OC(C)C [Compound 328, (S)-1-(2-benzyl-4-(3-isopropoxy-4-methoxyphenyl)piperazin-1-yl)-2-(1H-pyrrol-3-yl)ethanone]
31 | > 6.70 | COc1ccc(N2CCN(C(=O)Cc3nc(C)n[nH]3)[C@@H](Cc3ccccc3)C2)cc1OC(C)C [Compound 330, (S)-1-(2-benzyl-4-(3-isopropoxy-4-methoxyphenyl)piperazin-1-yl)-2-(3-methyl-1H-1,2,4-triazol-5-yl)ethanone]
32 | > 6.70 | Cc1n[nH]c(CC(=O)N2CCN(c3ccc(OC(F)F)c(OC(F)F)c3)C[C@@H]2Cc2ccccc2)n1 [Compound 332, (S)-1-(2-benzyl-4-(3,4-bis(difluoromethoxy)phenyl)piperazin-1-yl)-2-(3-methyl-1H-1,2,4-triazol-5-yl)ethanone]
